What was measured:
[1] = In vitro penetration rate across isolated human skin in modified Franz cells; conditions: for In vitro penetration rate (apparent flux), prodrug compounds: 10% solution in pH 7.4 phosphate buffer (0.2 M), n=5; for In vitro penetration rate (apparent flux), parent compounds: 10% suspension in pH 7.4 phosphate buffer (0.2 M), n=5, lowest detectable flux 1 μg/cm^2/h
Protocol: The penetration rates of HPPs and their parent drugs through human skin were measured in vitro by modified Franz cells. The Franz cells have two chambers, the top sample chamber and the bottom receiving chamber. The human skin tissue (360-400 μm thick) that separates the top and the receiving chambers was isolated from the anterior or posterior thigh areas.
The compound tested (2 mL, 20% in 0.2 M phosphate buffer, pH. 7.4) were added to the sample chamber of a Franz cell. The receiving chamber contains 10 ml of 2% bovine serum albumin in saline which was stirred at 600 rpm. The cumulative amounts of the tested compounds penetrating the skin versus time were determined by high-performance liquid chromatography (HPLC) method.

[2] = system: rabbit eye; assay: Conjunctival hyperemia in the rabbit eye after topical application; format: in vivo; conditions: first 2 hours, scale 0 (no hyperemia) to 4 (marked hyperemia with conjunctive chemosis)
Protocol: Conjunctival hyperemia in the rabbit eye of naturally occurring and modified prostaglandins and their novel prodrugs was evaluated during the first 2 hours after topical application of the respective test drug. The conjunctival hyperemia was graded on a scale from 0 to 4, 0 indicating complete absence of any hyperemia, and 4 indicating marked hyperemia with conjunctive chemosis.

[3] = system: cats with ocular hypertension; assay: Intraocular pressure (IOP) reduction in cats with ocular hypertension produced by laser trabeculoplasty; format: in vivo, cat
Protocol: The ability of certain compounds of the present invention to reduce intraocular pressure (IOP) was evaluated in cats with ocular hypertension produced by previously done laser trabeculoplastry. IOP was determined with a pneumatonometer after light corneal anesthesia with dilute proparacaine. Baseline IOP was determined prior to treatment with the test compound aqueous solution. 6 divided doses were administered over a period of 3 days (once every 12 hours). IOP was determined 24 hours after the initial dose and then once every 12 hours. The therapeutically efficient amount is typically between 0.001 and 0.01% in pH 7.2 phosphate buffer (0.1 M). The treatment was carried out in that one drop (about 30 micro liter) of the composition. The results of N,N-diethylaminoethyl 11,15-dihydroxy-9-oxoprost-13-en-1-oate.AcOH (A), N,N-diethylaminoethyl 11,15-dihydroxyl-9-oxoprosta-5,13-dien-1-oate.AcOH (B), N,N-diethylaminoethyl 9,11,15-trihydroxyprosta-5,13-dien-1-oate.AcOH(C), N,N-diethylaminoethyl 9,11-dihydroxy-15-keto-20-ethylprost-5,13-dien-1-oate.AcOH (9,11-dihydroxy-15-keto-20-ethylprostaglandin F2α N,N-diethylaminoethyl ester) (D), N,N-diethylaminoethyl (Z)-7-{(1R,2R,3R,5S)-3,5-dihydroxy-2-[(1E,3R)-3-hydroxy-4-[(α,α,α-trifluoro-m-tolyl)oxy]-1-butenyl]cyclopentyl}-5-heptenoate.AcOH (E), N,N-diethylaminoethyl (Z)-7{(1R,2R,3R,5S)-3,5-dihydroxy-2-[(3R)-3-hydroxy-5-phenylpentyl]cyclopentyl}-5-heptenoate.AcOH (F), and N,N-diethylaminoethyl (Z)-7-{(1R,2R,3R,5S)-3,5-Dihydroxy-2-[(1E,3S)-3-hydroxy-5-phenyl-1-pentenyl]cyclopentyl}-heptenoate.AcOH (G) are shown in Table 2.

[4] = system: cat eye; assay: Irritative effect or ocular discomfort in the cat eye after topical application; format: in vivo; conditions: first 2 hours, scale 0 (no discomfort) to 4 (maximal irritation, complete lid closure)
Protocol: Irritative effect or ocular discomfort in the cat eye of naturally occurring and modified prostaglandins and their novel prodrugs were evaluated during the first hours after the topical application of the respective test drug. The ocular discomfort was graded on a scale from 0 to 4, 0 indicating complete absence of any signs of discomfort, and 4 indicating maximal irritation as obvious from complete lid closure.

[5] = dose 0.01%, one drop topical every 12 hours, 6 doses

Structure (SMILES)	In vitro penetration rate (apparent flux), prodrug compounds [1] [mg/cm^2/h]	In vitro penetration rate (apparent flux), parent compounds [1] [mg/cm^2/h]	further results
CC(=O)O.CCCCCC(O)C=C[C@H]1C(O)CC2OC(=CCCCC(=O)OCCN(CC)CC)C[C@@H]21 (some centres unmarked) [N,N-diethylaminoethyl 6,9-epoxy-11,15-dihydroxyprosta-5,13-dien-1-oate•AcOH]	1.11	–	–
CC(=O)O.CCCCC(C)(O)CC=C[C@H]1C(O)CC(=O)[C@@H]1CCCCCCC(=O)OCCN(CC)CC (some centres unmarked) [N,N-diethylaminoethyl 11,16-dihydroxy-9-oxo-16-methylprost-13-en-1-oate•AcOH]	1.09	–	–
CC(=O)O.CCCCCCCC(=O)C=C[C@H]1C(O)CC(O)[C@@H]1CC=CCCCC(=O)OCCN(CC)CC (some centres unmarked) [N,N-diethylaminoethyl 9,11-dihydroxy-15-keto-20-ethylprost-5,13-dien-1-oate.AcOH]	1.05	–	Degree of irritative effect (conjunctival hyperemia) ([2]; dose 0.01% topical): 1; Intraocular pressure, 24 hours after administration [3, 5]: 16.5 ± 0.6; Intraocular pressure, 36 hours after administration [3, 5]: 16.7 ± 0.4; Intraocular pressure, 48 hours after administration [3, 5]: 16.8 ± 0.6; Intraocular pressure, 60 hours after administration [3, 5]: 17.1 ± 0.5; Intraocular pressure, 72 hours after administration [3, 5]: 16.8 ± 0.5; Intraocular pressure, baseline ([3]; prior to treatment, group dosed 0.01%): 22.0 ± 0.6; Degree of irritative effect ([4]; dose 0.01% topical): 1
O=C(O)CCC/C=C\C[C@@H]1[C@@H](/C=C/[C@@H](O)COc2cccc(C(F)(F)F)c2)[C@H](O)C[C@@H]1O (racemic) [Fluprostenol, reference compound]	–	0.001	–
CCCCC[C@H](O)/C=C/[C@@H]1[C@@H](CCCCCCC(=O)O)[C@@H](O)C[C@H]1O [PGE1α, reference compound]	–	0.001	–
CCNC(=O)CCC/C=C\C[C@@H]1[C@@H](/C=C/[C@@H](O)CCc2ccccc2)[C@H](O)C[C@@H]1O [Bimatoprost, reference compound]	–	0.001	Degree of irritative effect (conjunctival hyperemia) ([2]; dose 0.001% topical): 2.5; Degree of irritative effect ([4]; dose 0.001% topical): 2.5
CCCCCCCC(=O)CC[C@@H]1[C@@H](C/C=C\CCCC(=O)O)[C@@H](O)C[C@H]1O [Unoprostone, 13,14-dihydro-15-keto-20-ethyl Prostaglandin F2α, reference compound]	–	0.001	Degree of irritative effect (conjunctival hyperemia) ([2]; dose 0.01% topical): 2.5; Degree of irritative effect ([4]; dose 0.01% topical): 2.5
CC(=O)O.CCN(CC)CCOC(=O)CCCC=CCC1C(=O)CC(O)C1C=CC(O)COc1ccccc1 (centres unmarked) [N,N-diethylaminoethyl 7-[3-hydroxy-2-(3-hydroxy-4-phenoxy-1-butenyl)-5-oxocyclopentyl]-5-heptenoate•AcOH]	1.01	–	–
CC(=O)O.CCCCCC(O)C=C[C@H]1C(O)CC(O)[C@@H]1CCCCCCC(=O)OCCN(CC)CC (some centres unmarked) [N,N-diethylaminoethyl 9,11,15-trihydroxyprost-13-en-1-oate•AcOH]	0.85	–	–
CC(=O)O.CCCCCC(O)C=C[C@H]1C(O)CC(=O)[C@@H]1CC=CCCCC(=O)OCCN(CC)CC (some centres unmarked) [N,N-diethylaminoethyl 11,15-dihydroxy-9-oxoprosta-5,13-dien-1-oate.AcOH]	1.10	–	–
CC(C)OC(=O)CCC/C=C\C[C@@H]1[C@@H](CC[C@@H](O)CCc2ccccc2)[C@H](O)C[C@@H]1O [Latanoprost, 13,14-dihydro-17-phenyl-18,19,20-trinor PGF2α isopropyl ester, reference compound]	–	0.001	Degree of irritative effect ([4]; dose 0.001% topical): 2.5
CCCCC[C@H](O)/C=C/[C@@H]1[C@@H](C/C=C\CCCC(=O)O)[C@@H](O)C[C@H]1O [PGF2α, reference compound]	–	–	Degree of irritative effect (conjunctival hyperemia) ([2]; dose 0.001% topical): 4; Degree of irritative effect ([4]; dose 0.001% topical): 3.5
CC(=O)O.CCN(CC)CCOC(=O)CCCC=CCC1C(O)CC(O)C1C=CC(O)COc1cccc(Cl)c1 (centres unmarked) [N,N-diethylaminoethyl 7-{2-[4-(3-chlorophenoxy)-3-hydroxy-1-butenyl]-3,5-dihydroxycyclopentyl}-5-heptenoate•AcOH]	0.92	–	–
CCCCCC(C)(O)/C=C/[C@@H]1[C@@H](CC=C=CCCC(=O)OC)[C@@H](O)C[C@H]1O (some centres unmarked) [Prostalene, reference compound]	–	0.001	–
CCCCC[C@H](O)/C=C/[C@H]1[C@H](O)CC(=O)[C@@H]1C/C=C\CCCC(=O)O [PGE2, reference compound]	–	0.001	Degree of irritative effect (conjunctival hyperemia) ([2]; dose 0.001% topical): 4; Degree of irritative effect ([4]; dose 0.001% topical): 3.5
CCCCC[C@](C)(O)/C=C/[C@@H]1[C@@H](C/C=C\CCCC(=O)O)[C@@H](O)C[C@H]1O [Carboprost, reference compound]	–	0.001	–
COC(=O)CCC=C=CCC1C(O)CC(O)C1/C=C/C(O)COc1ccccc1 (centres unmarked) [fenprostalene, reference compound]	–	0.001	–
CS(=O)(=O)NC(=O)CCC/C=C\C[C@H]1C(=O)C[C@@H](O)[C@@H]1/C=C/[C@@H](O)COc1ccccc1 [Sulprostone, reference compound]	–	0.001	–
CCCCC(C)(C)[C@H](O)/C=C/[C@H]1[C@H](O)CC(=O)[C@@H]1CCCC/C=C/C(=O)OC [Gemeprost, reference compound]	–	0.001	–
CCCCC[C@H](O)/C=C/[C@H]1[C@H](O)CC(=O)[C@@H]1CCCCCCC(=O)O [PGE1, reference compound]	–	–	Degree of irritative effect (conjunctival hyperemia) ([2]; dose 0.001% topical): 4; Degree of irritative effect ([4]; dose 0.001% topical): 4
O=C(O)CCC/C=C\CC1C(O)CC(O)C1/C=C/C(O)COc1cccc(Cl)c1 (centres unmarked) [Cloprostenol, reference compound]	–	0.001	–
CC(=O)O.CCN(CC)CCOC(=O)CCC=C=CCC1C(O)CC(O)C1C=CC(O)COc1ccccc1 (centres unmarked) [N,N-diethylaminoethyl 7-[3,5-dihydroxy-2-(3-hydroxy-4-phenoxy-1-butenyl)cyclopentyl]-4,5-heptadien-1-oate•AcOH]	0.81	–	–
CCCCC(C)(O)C/C=C/[C@H]1[C@H](O)CC(=O)[C@@H]1CCCCCCC(=O)OC (mixture of isomers) [Misoprostol, reference compound]	–	0.001	–
CC(=O)O.CCN(CC)CCOC(=O)CCCC=CCC1C(O)CC(O)C1C=CC(O)COc1cccc(C(F)(F)F)c1 (centres unmarked) [N,N-diethylaminoethyl 7-{3,5-dihydroxy-2-[3-hydroxy-4-(3-trifluoromethylphenoxy)-1-butenyl]cyclopentyl}-5-heptenoate•AcOH]	0.86	–	–
CC(=O)O.CCCCC(C)(C)C(O)C=C[C@H]1C(O)CC(=O)[C@@H]1CCCCC=CC(=O)OCCN(CC)CC (some centres unmarked) [N,N-diethylaminoethyl 11,15-dihydroxy-16,16-dimethyl-9-oxoprosta-2,13-dien-1-oate•AcOH]	0.88	–	–
CC(=O)O.CCCCCC(C)(O)C=C[C@H]1C(O)CC(O)[C@@H]1CC=C=CCCC(=O)OCCN(CC)CC (some centres unmarked) [N,N-diethylaminoethyl 9,11,15-trihydroxy-15-methylprosta-4,5,13-trien-1-oate•AcOH]	0.90	–	–
CCCCC[C@H](O)/C=C/[C@@H]1[C@H]2C/C(=C/CCCC(=O)O)O[C@H]2C[C@H]1O [PGI2, prostacyclin, reference compound]	–	0.001	–

— patent publication US11555014B2, “High penetration prodrug compositions of prostaglandins and related compounds” (Techfields Pharma Co., Ltd., priority 2006, dated 2023)
